Test results taken from US10588317B2, “Isoxazoline-substituted benzamides and analogues as insecticides” (priority 2015, dated 2020).

How the values were obtained:
Assay type in all cases: in vivo
Myzus persicae = Myzus persicae (green peach aphid): feeding/contact activity; conditions: 144 h, application rate 200 ppm, aphid population of mixed ages, 6 days after infestation, read-out: mortality
Protocol: (§1) Sunflower leaf discs were placed onto agar in a 24-well microtiter plate and sprayed with aqueous test solutions prepared from 10'000 ppm DMSO stock solutions. After drying, the leaf discs were infested with an aphid population of mixed ages. The samples were assessed for mortality 6 days after infestation.

Plutella xylostella = Plutella xylostella (diamond back moth), artificial diet; conditions: 120 h, application rate 200 ppm, L2 larvae, 5 days after infestation, read-out: effect in at least one of the two categories (mortality or growth inhibition)
Procedure, shortened: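 Artificial diet in 24-well plates treated with aqueous test solutions made from 10'000 ppm DMSO stocks, dried, then infested with L2 larvae (10 to 15 per well). Mortality and growth inhibition scored against untreated samples 5 days after infestation; activity cut-off at least 80% in either category at 200 ppm.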

Diabrotica balteata = Diabrotica balteata (corn root worm), sprayed maize sprouts; conditions: 96 h, application rate 200 ppm, L2 larvae, 4 days after infestation, read-out: effect in at least one of the two categories (mortality or growth inhibition)
Procedure, shortened: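 Maize sprouts on agar sprayed with aqueous dilutions of DMSO stocks, dried, then infested with L2 larvae (6–10 per well). Mortality and growth inhibition scored against untreated controls 4 days after infestation, at 200 ppm application rate.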

Spodoptera littoralis [1] = test: Spodoptera littoralis (Egyptian cotton leaf worm), uptake by lettuce roots from agar; conditions: 144 h, read-out: effect in at least one of the three categories (mortality, anti-feeding, or growth inhibition)
Procedure, shortened: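 Compound from 10'000 ppm DMSO stocks was mixed into agar, and lettuce grew on it for 7 days to take it up via roots. Cut leaves were infested with Spodoptera eggs; mortality, anti-feedant effect and growth inhibition scored 6 days later versus untreated samples.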

Tetranychus urticae = Tetranychus urticae (two-spotted spider mite): feeding/contact activity; conditions: 192 h, application rate 200 ppm, mixed population (mobile stages), 8 days after infestation, read-out: mortality
Protocol: Bean leaf discs on agar in 24-well microtiter plates were sprayed with aqueous test solutions prepared from 10'000 ppm DMSO stock solutions. After drying the leaf discs were infested with a mite population of mixed ages. The samples were assessed for mortality on mixed population (mobile stages) 8 days after infestation.

Spodoptera littoralis [2] = test: Spodoptera littoralis (Egyptian cotton leaf worm), sprayed cotton leaf discs; conditions: foliar, 72 h, application rate 200 ppm, L1 larvae, 3 days after infestation, read-out: control (mortality, anti-feeding effect, growth inhibition)
Procedure, shortened: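 Cotton leaf discs on agar sprayed with aqueous test solutions made from 10'000 ppm DMSO stock; after drying, infested with five L1 larvae. Mortality, anti-feeding and growth inhibition scored versus untreated samples 3 days after infestation; control counted when any category exceeds untreated.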

Thrips tabaci = Thrips tabaci (onion thrips): feeding/contact activity; conditions: 144 h, application rate 200 ppm, Thrips population of mixed ages, 6 days after infestation, read-out: mortality
Protocol: as §1, with “on” for “onto”, “in” for “in a”, “plates” for “plate”, “drying” for “drying,”, “a Thrips” for “an aphid”

Euschistus heros = Euschistus heros (neotropical brown stink bug), sprayed soybean leaves; conditions: 120 h, application rate 200 ppm, N2 nymphs, 5 days after infestation, read-out: effect in at least one of the two categories (mortality or growth inhibition)
Procedure, shortened: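 Soybean leaves on agar sprayed with aqueous dilutions of DMSO stocks, dried, then infested with N2 nymphs. Mortality and growth inhibition scored against untreated samples 5 days after infestation; application rate 200 ppm.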

C=Cc1cc(C2=NOC(c3cc(Cl)cc(Cl)c3)(C(F)(F)F)C2)ccc1C(=O)NC1CON(S(C)(=O)=O)C1 (stereo not shown) [Compound A65]
≥ 80%: mortality at 200 ppm (Myzus persicae) | percent effect (mortality or growth inhibition) at 200 ppm (Plutella xylostella) | percent effect (mortality or growth inhibition) at 200 ppm (Diabrotica balteata) | percent control (mortality, anti-feedant effect or growth inhibition) at 12.5 ppm (Spodoptera littoralis [1]) | mortality at 200 ppm (Tetranychus urticae) | mortality at 200 ppm (Spodoptera littoralis [2]) | mortality at 200 ppm (Thrips tabaci) | percent effect (mortality or growth inhibition) at 200 ppm (Euschistus heros)

CCS(=O)(=O)N1C[C@@H](NC(=O)c2ccc(C3=NO[C@@](c4cc(Cl)c(Cl)c(Cl)c4)(C(F)(F)F)C3)cc2C)CO1 [Compound A118]
≥ 80%: mortality at 200 ppm (Myzus persicae) | percent effect (mortality or growth inhibition) at 200 ppm (Plutella xylostella) | percent effect (mortality or growth inhibition) at 200 ppm (Diabrotica balteata) | percent control (mortality, anti-feedant effect or growth inhibition) at 12.5 ppm (Spodoptera littoralis [1]) | mortality at 200 ppm (Tetranychus urticae) | mortality at 200 ppm (Spodoptera littoralis [2]) | mortality at 200 ppm (Thrips tabaci) | percent effect (mortality or growth inhibition) at 200 ppm (Euschistus heros)

Cc1cc(C2=NO[C@@](c3cc(Cl)cc(C(F)(F)F)c3)(C(F)(F)F)C2)ccc1C(=O)N[C@H]1CON(S(C)(=O)=O)C1 [Compound A75]
≥ 80%: mortality at 200 ppm (Myzus persicae) | percent effect (mortality or growth inhibition) at 200 ppm (Plutella xylostella) | percent effect (mortality or growth inhibition) at 200 ppm (Diabrotica balteata) | percent control (mortality, anti-feedant effect or growth inhibition) at 12.5 ppm (Spodoptera littoralis [1]) | mortality at 200 ppm (Tetranychus urticae) | mortality at 200 ppm (Spodoptera littoralis [2]) | mortality at 200 ppm (Thrips tabaci) | percent effect (mortality or growth inhibition) at 200 ppm (Euschistus heros)

CNS(=O)(=O)N1C[C@@H](NC(=O)c2ccc(C3=NO[C@@](c4cc(Cl)cc(Cl)c4)(C(F)(F)F)C3)cc2C)CO1 [Compound A139, 4-[(5S)-5-(3,5-dichlorophenyl)-5-(trifluoromethyl)-4H-isoxazol-3-yl]-2-methyl-N-[(4R)-2-(methylsulfamoyl)isoxazolidin-4-yl]benzamide]
≥ 80%: mortality at 200 ppm (Myzus persicae) | percent effect (mortality or growth inhibition) at 200 ppm (Plutella xylostella) | percent effect (mortality or growth inhibition) at 200 ppm (Diabrotica balteata) | percent control (mortality, anti-feedant effect or growth inhibition) at 12.5 ppm (Spodoptera littoralis [1]) | mortality at 200 ppm (Tetranychus urticae) | mortality at 200 ppm (Spodoptera littoralis [2]) | mortality at 200 ppm (Thrips tabaci) | percent effect (mortality or growth inhibition) at 200 ppm (Euschistus heros)

Cc1cc(C2=NOC(c3cc(Cl)c(F)c(Cl)c3)(C(F)(F)F)C2)ccc1C(=O)NC1CON(S(C)(=O)=O)C1 (stereo not shown) [Compound A63]
≥ 80%: mortality at 200 ppm (Myzus persicae) | percent effect (mortality or growth inhibition) at 200 ppm (Plutella xylostella) | percent effect (mortality or growth inhibition) at 200 ppm (Diabrotica balteata) | percent control (mortality, anti-feedant effect or growth inhibition) at 12.5 ppm (Spodoptera littoralis [1]) | mortality at 200 ppm (Tetranychus urticae) | mortality at 200 ppm (Spodoptera littoralis [2]) | mortality at 200 ppm (Thrips tabaci) | percent effect (mortality or growth inhibition) at 200 ppm (Euschistus heros)

Cc1cc(C2=NO[C@@](c3cc(Cl)cc(Cl)c3)(C(F)(F)F)C2)ccc1C(=O)N[C@H]1CON(S(=O)(=O)NC2CC2)C1 [Compound A155]
≥ 80%: mortality at 200 ppm (Myzus persicae) | percent effect (mortality or growth inhibition) at 200 ppm (Plutella xylostella) | percent effect (mortality or growth inhibition) at 200 ppm (Diabrotica balteata) | percent control (mortality, anti-feedant effect or growth inhibition) at 12.5 ppm (Spodoptera littoralis [1]) | mortality at 200 ppm (Tetranychus urticae) | mortality at 200 ppm (Spodoptera littoralis [2]) | mortality at 200 ppm (Thrips tabaci) | percent effect (mortality or growth inhibition) at 200 ppm (Euschistus heros)

Cc1cc(C2=NOC(c3cc(Cl)c(Br)c(Cl)c3)(C(F)(F)F)C2)ccc1C(=O)NC1CON(S(C)(=O)=O)C1 (stereo not shown) [Compound A45]
≥ 80%: mortality at 200 ppm (Myzus persicae) | percent effect (mortality or growth inhibition) at 200 ppm (Plutella xylostella) | percent effect (mortality or growth inhibition) at 200 ppm (Diabrotica balteata) | percent control (mortality, anti-feedant effect or growth inhibition) at 12.5 ppm (Spodoptera littoralis [1]) | mortality at 200 ppm (Tetranychus urticae) | mortality at 200 ppm (Spodoptera littoralis [2]) | mortality at 200 ppm (Thrips tabaci) | percent effect (mortality or growth inhibition) at 200 ppm (Euschistus heros)

CNS(=O)(=O)N1CC(NC(=O)c2ccc(C3=NO[C@@](c4cc(Cl)c(F)c(Cl)c4)(C(F)(F)F)C3)cc2C)CO1 (stereo partly shown) [Compound A70]
≥ 80%: mortality at 200 ppm (Myzus persicae) | percent effect (mortality or growth inhibition) at 200 ppm (Plutella xylostella) | percent effect (mortality or growth inhibition) at 200 ppm (Diabrotica balteata) | percent control (mortality, anti-feedant effect or growth inhibition) at 12.5 ppm (Spodoptera littoralis [1]) | mortality at 200 ppm (Tetranychus urticae) | mortality at 200 ppm (Spodoptera littoralis [2]) | mortality at 200 ppm (Thrips tabaci) | percent effect (mortality or growth inhibition) at 200 ppm (Euschistus heros)

Cc1cc(C2=NO[C@@](c3cc(Cl)c(F)c(Cl)c3)(C(F)(F)F)C2)ccc1C(=O)N[C@H]1CON(S(C)(=O)=O)C1 (single isomer, unassigned) [Compound A13]
≥ 80%: mortality at 200 ppm (Myzus persicae) | percent effect (mortality or growth inhibition) at 200 ppm (Plutella xylostella) | percent effect (mortality or growth inhibition) at 200 ppm (Diabrotica balteata) | percent control (mortality, anti-feedant effect or growth inhibition) at 12.5 ppm (Spodoptera littoralis [1]) | mortality at 200 ppm (Tetranychus urticae) | mortality at 200 ppm (Spodoptera littoralis [2]) | mortality at 200 ppm (Thrips tabaci) | percent effect (mortality or growth inhibition) at 200 ppm (Euschistus heros)

CCS(=O)(=O)N1CC(NC(=O)c2ccc(C3=NO[C@@](c4cc(Cl)cc(C(F)(F)F)c4)(C(F)(F)F)C3)cc2C)CO1 (stereo partly shown) [Compound A42]
≥ 80%: mortality at 200 ppm (Myzus persicae) | percent effect (mortality or growth inhibition) at 200 ppm (Plutella xylostella) | percent effect (mortality or growth inhibition) at 200 ppm (Diabrotica balteata) | percent control (mortality, anti-feedant effect or growth inhibition) at 12.5 ppm (Spodoptera littoralis [1]) | mortality at 200 ppm (Tetranychus urticae) | mortality at 200 ppm (Spodoptera littoralis [2]) | mortality at 200 ppm (Thrips tabaci) | percent effect (mortality or growth inhibition) at 200 ppm (Euschistus heros)

Cc1cc(C2=NO[C@@](c3cc(Cl)c(Cl)c(Cl)c3)(C(F)(F)F)C2)ccc1C(=O)N[C@@H]1CON(S(=O)(=O)N(C)C)C1 (single isomer, unassigned) [Compound A112]
≥ 80%: mortality at 200 ppm (Myzus persicae) | percent effect (mortality or growth inhibition) at 200 ppm (Plutella xylostella) | percent effect (mortality or growth inhibition) at 200 ppm (Diabrotica balteata) | percent control (mortality, anti-feedant effect or growth inhibition) at 12.5 ppm (Spodoptera littoralis [1]) | mortality at 200 ppm (Tetranychus urticae) | mortality at 200 ppm (Spodoptera littoralis [2]) | mortality at 200 ppm (Thrips tabaci) | percent effect (mortality or growth inhibition) at 200 ppm (Euschistus heros)

Cc1cc(C2=NOC(c3ccc(Cl)c(Cl)c3)(C(F)(F)F)C2)ccc1C(=O)NC1CON(S(C)(=O)=O)C1 (stereo not shown) [Compound A66]
≥ 80%: mortality at 200 ppm (Myzus persicae) | percent effect (mortality or growth inhibition) at 200 ppm (Plutella xylostella) | percent effect (mortality or growth inhibition) at 200 ppm (Diabrotica balteata) | percent effect (mortality, anti-feeding or growth inhibition) at 12.5 ppm (Spodoptera littoralis [1]; test rate 12.5 ppm, eggs, 6 days after infestation) | mortality at 200 ppm (Tetranychus urticae) | mortality at 200 ppm (Spodoptera littoralis [2]) | mortality at 200 ppm (Thrips tabaci) | percent effect (mortality or growth inhibition) at 200 ppm (Euschistus heros)

CS(=O)(=O)N1C[C@@H](NC(=O)c2ccc(C3=NO[C@@](c4cc(Cl)c(F)c(Cl)c4)(C(F)(F)F)C3)cc2Cl)CO1 [Compound A144, 2-chloro-4-[(5S)-5-(3,5-dichloro-4-fluoro-phenyl)-5-(trifluoromethyl)-4H-isoxazol-3-yl]-N-[(4R)-2-methylsulfonylisoxazolidin-4-yl]benzamide]
≥ 80%: mortality at 200 ppm (Myzus persicae) | percent effect (mortality or growth inhibition) at 200 ppm (Plutella xylostella) | percent effect (mortality or growth inhibition) at 200 ppm (Diabrotica balteata) | percent control (mortality, anti-feedant effect or growth inhibition) at 12.5 ppm (Spodoptera littoralis [1]) | mortality at 200 ppm (Tetranychus urticae) | mortality at 200 ppm (Spodoptera littoralis [2]) | mortality at 200 ppm (Thrips tabaci) | percent effect (mortality or growth inhibition) at 200 ppm (Euschistus heros)

Cc1cc(C2=NO[C@@](c3cc(Cl)c(Cl)c(Cl)c3)(C(F)(F)F)C2)ccc1C(=O)N[C@H]1CON(S(C)(=O)=O)C1 [Compound A36]
≥ 80%: mortality at 200 ppm (Myzus persicae) | percent effect (mortality or growth inhibition) at 200 ppm (Plutella xylostella) | percent effect (mortality or growth inhibition) at 200 ppm (Diabrotica balteata) | percent control (mortality, anti-feedant effect or growth inhibition) at 12.5 ppm (Spodoptera littoralis [1]) | mortality at 200 ppm (Tetranychus urticae) | mortality at 200 ppm (Spodoptera littoralis [2]) | mortality at 200 ppm (Thrips tabaci) | percent effect (mortality or growth inhibition) at 200 ppm (Euschistus heros)
